Where two headings read alike, the source gives them in different places.
Key:
11β-hydroxylase [1] = target: T1, 11β-hydroxylase (Homo sapiens, UniProt P15538); details: previously reported work; cited from earlier work
T1 sequence (P15538 25-503): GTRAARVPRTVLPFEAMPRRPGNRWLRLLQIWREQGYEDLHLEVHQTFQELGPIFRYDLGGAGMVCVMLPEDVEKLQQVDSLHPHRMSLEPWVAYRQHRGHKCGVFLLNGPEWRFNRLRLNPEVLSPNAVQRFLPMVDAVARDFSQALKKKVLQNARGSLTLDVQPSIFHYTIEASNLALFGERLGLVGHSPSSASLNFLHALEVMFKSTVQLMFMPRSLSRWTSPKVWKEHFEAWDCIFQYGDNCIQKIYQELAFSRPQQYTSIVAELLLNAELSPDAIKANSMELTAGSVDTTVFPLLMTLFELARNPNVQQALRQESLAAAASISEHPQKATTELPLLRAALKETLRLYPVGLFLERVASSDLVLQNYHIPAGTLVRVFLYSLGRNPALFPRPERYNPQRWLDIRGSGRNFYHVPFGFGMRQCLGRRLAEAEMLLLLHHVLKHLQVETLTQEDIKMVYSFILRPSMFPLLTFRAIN

[2] = test system: adrenocortical steroid synthesis; assay: ACTH-stimulation test in dexamethasone-suppressed rats, plasma adrenocortical steroids by ELISA; details: for inhibition of adrenocortical steroid synthesis (FIG. 10): rats, 3 mg/kg IV dose
Experimental: Briefly, rats were pretreated with dexamethasone (0.2 mg/kg intravenously) to reduce endogenous ACTH production and minimize baseline adrenocortical steroid concentrations. Two hours later and after receiving a second dexamethasone dose, rats received ACTH1-24 (IV) and the desired dose of either etomidate or dimethoxy-etomidate solubilized in water containing a 1:1 molar ratio of Captisol (Ligand Pharmaceuticals, San Diego, Calif.) or water containing Captisol vehicle alone as a control. Fifteen minutes later, a blood sample was drawn and ACTH-stimulated adrenocortical steroid concentrations in the plasma were determined using enzyme-linked immunosorbent assays and a 96-well plate reader (Molecular Devices, Sunnyvale, Calif.).

Sprague-Dawley rats [3] = assay: Loss of righting reflexes (LORR) assay, sedative-hypnotic activity; details: for ED50: Rattus norvegicus, iv, read-out: ED50 for loss of righting reflexes; for dose producing loss of righting reflexes in all rats: IV
Experimental: Briefly, the desired dose of drug in dimethyl sulfoxide vehicle (0.1-0.3 mL) was rapidly (<5 s) injected through a 24-gauge intravenous catheter placed in a tail vein. This was followed by a 0.5-mL normal saline flush. Immediately after injection, rats were turned supine. […] The duration of LORR was defined as the time from drug injection until the animal spontaneously righted itself onto all four legs.

11β-hydroxylase [4] = target: T2, 11β-hydroxylase (Rattus norvegicus, UniProt P15393); assay: Displacement of [3H]-etomidate from adrenal membranes; type: binding
T2 construct: tissue BioreclamationlVT; host or cells: membranes (homogenate pellet) from Sprague-Dawley rat adrenal glands
T2 sequence (P15393 25-499): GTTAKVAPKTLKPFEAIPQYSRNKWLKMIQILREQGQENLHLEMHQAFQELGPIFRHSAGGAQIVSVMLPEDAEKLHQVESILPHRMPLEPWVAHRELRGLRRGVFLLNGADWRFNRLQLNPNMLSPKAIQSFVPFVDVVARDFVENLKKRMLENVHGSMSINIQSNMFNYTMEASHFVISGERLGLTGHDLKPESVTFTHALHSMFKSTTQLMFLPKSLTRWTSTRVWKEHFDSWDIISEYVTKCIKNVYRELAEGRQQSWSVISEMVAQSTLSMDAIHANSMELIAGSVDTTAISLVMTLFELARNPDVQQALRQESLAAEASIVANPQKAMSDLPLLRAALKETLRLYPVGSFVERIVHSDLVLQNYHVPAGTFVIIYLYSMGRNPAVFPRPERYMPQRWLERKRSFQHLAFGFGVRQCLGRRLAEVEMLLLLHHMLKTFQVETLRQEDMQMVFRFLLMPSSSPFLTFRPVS
Experimental: Briefly, 4 adrenal glands were thawed for each preparation, placed on a glass stand, cut into pieces, and then added to ice-cold preparation buffer (HEPES 10 mM, EDTA 1 mM, leupeptin 10 μg/mL, chymostatin 10 μg/mL, pepstatin A 10 μg/mL, aprotinin 2 μg/mL, polymethanesulfonyl fluoride 1 mM and ethanol 10 μg/mL). After homogenization, carboxylesterases were inactivated by incubating with 1 mM diisopropyl fluorophosphate (Sigma-Aldrich) for 60 min. The mixture was then centrifuged and the resulting pellet was washed twice. The final pellet was then re-suspended in buffer by manual homogenization, passed through a 23-gauge needle three times, aliquoted into 1 mL eppendorf tubes, and stored at −80° C. until used. The protein concentration in these samples was quantified using a Pierce BCA Protein Assay Kit (ThermoFisher, Rockford, Ill., USA). All binding experiments were performed in glass vials at room temperature with the final concentration of protein adjusted to 0.07 mg/mL. The reported data were obtained using 3 separate preparations.
After equilibration, the mixture was passed through a pre-soaked (with 0.5% polyethylenimine in water for 2 h) 25 mm GF/B glass fiber filter under suction, the filter was immediately washed twice with 5 mL of assay buffer. After drying under a heat lamp for two hours, each filter was transferred to a scintillation vial. Liquiscint scintillation cocktail (National Diagnostics, Atlanta, Ga., USA) was added to the vial and the radioactivity in the vial quantified using a Packard Tri-Carb liquid scintillation counter (Meriden, Conn., USA). The concentration-response relationships for inhibition of [^3H]-etomidate by etomidate and dimethoxy-etomidate were fit to one and two site models, respectively, using Prism 6 for Mac OS X.

α1β3γ2L GABAA receptor = target: T3, α1β3γ2L GABAA receptor (Homo sapiens, UniProt P14867+P28472); assay: GABAA receptor electrophysiology, potentiation of EC5 GABA-evoked currents in Xenopus oocytes; type: cell-based; details: for maximum peak current at high drug concentrations, % of that produced by 1 mM GABA: Hill fit, EC5 GABA + drug
T3 construct: expressed in transfected cells; host or cells: Xenopus oocytes injected with mRNA
Experimental: Oocytes were then incubated in ND96 buffer (96 mM NaCl, 2 mM KCl, 1.8 mM CaCl2, 1 mM MgCl2, 5 mM HEPES, pH=7.4) containing 0.05 mg/mL of gentamicin for 18 to 48 hours at 18° C. before electrophysiological study. […] For each oocyte, a GABA concentration-peak current response curve was generated to define the GABA concentration that elicits 5% of the current evoked by 1 mM GABA (i.e., EC5 GABA). The effect of drug (etomidate or dimethoxy-etomidate) was then defined in that oocyte by perfusing it with EC5 GABA alone for 15-20 s followed immediately by EC5 GABA+drug at the desired concentration for 20-60 s. The resulting current response was then recorded. The peak current response recorded in the presence of EC5 GABA+drug was then normalized to the peak current response evoked by 1 mM GABA. Between electrophysiological recordings, oocytes were perfused with buffer for at least 3 min to remove GABA (and drug, if present) and to allow receptors to recover from desensitization.
In these fits, the minimum was constrained to 5% (by definition, for EC5 evoked currents).

Sprague-Dawley rats [5] = assay: Myoclonic movements in rats, two-way crossover; type: in vivo, rat; details: 3 mg/kg IV; for occurrence of myoclonus and LoRR: 30-minute observation, n=8
Experimental: Rats were immediately tested for LoRR and the number of myoclonic events was recorded during each 5-minute epoch for 30 minutes. A myoclonic event was defined as an unproductive (i.e., not associated with LoRR, feeding, or grooming behaviors) movement. Each distinct jerk or tremor constituted a single event. To avoid potentially confounding movements associated with bruxing, boggling, sniffing, and grooming, myoclonus was only considered to occur in the head and jaw when there was the presence of abnormal tongue lolling and jaw movement, or a sharp head movement out of sync with the rats breathing. At the end of the 30-minute observation period, rats were returned to their cages. After a 24-hour recovery period, each rat was crossed over to the other drug group and the experiment repeated.

[6] = 50 mg/kg intravenous dose; cited from earlier work
[7] = 0.3 mg/kg IV, 15 min, vs vehicle control
[8] = 3 mg/kg IV, 15 min, vs vehicle control
[9] = 50 mg/kg IV, vs vehicle control

T3 sequence (P14867 28-456): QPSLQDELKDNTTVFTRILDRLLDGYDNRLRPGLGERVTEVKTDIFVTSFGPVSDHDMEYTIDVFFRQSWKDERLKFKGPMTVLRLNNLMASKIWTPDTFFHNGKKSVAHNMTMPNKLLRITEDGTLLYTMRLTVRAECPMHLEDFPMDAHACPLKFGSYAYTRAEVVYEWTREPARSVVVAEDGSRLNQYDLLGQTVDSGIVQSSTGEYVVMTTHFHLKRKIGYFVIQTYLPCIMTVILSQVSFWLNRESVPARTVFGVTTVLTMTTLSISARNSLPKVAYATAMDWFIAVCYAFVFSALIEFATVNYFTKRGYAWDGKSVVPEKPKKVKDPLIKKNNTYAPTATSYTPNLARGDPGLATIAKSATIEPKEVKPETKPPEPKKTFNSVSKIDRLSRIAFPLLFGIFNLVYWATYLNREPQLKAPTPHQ
T3 sequence (P28472 26-473): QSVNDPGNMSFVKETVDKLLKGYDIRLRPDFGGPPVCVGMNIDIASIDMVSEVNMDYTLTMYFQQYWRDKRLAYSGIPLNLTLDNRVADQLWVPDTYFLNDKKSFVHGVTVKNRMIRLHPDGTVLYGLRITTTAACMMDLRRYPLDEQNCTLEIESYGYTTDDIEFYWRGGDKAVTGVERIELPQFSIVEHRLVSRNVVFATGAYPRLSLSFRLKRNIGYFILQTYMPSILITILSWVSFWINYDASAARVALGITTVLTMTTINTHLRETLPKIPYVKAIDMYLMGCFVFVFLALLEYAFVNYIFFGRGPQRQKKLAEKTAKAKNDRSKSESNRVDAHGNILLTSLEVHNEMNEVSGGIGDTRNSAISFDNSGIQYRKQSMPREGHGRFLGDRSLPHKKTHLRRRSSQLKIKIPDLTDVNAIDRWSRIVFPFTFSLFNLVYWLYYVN
T3 sequence (P18507 40-475 partner): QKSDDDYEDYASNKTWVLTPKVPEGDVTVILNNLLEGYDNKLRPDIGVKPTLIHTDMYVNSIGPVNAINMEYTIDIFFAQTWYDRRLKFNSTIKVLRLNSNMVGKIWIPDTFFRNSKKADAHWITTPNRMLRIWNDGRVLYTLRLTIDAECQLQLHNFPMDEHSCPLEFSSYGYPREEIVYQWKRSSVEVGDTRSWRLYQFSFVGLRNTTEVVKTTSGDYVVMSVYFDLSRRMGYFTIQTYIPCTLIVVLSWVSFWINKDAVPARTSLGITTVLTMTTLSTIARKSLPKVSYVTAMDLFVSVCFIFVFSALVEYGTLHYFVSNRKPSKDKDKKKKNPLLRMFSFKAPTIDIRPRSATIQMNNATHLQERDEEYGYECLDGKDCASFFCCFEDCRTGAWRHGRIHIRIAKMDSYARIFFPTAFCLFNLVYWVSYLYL

| SMILES | inhibition of adrenocortical steroid synthesis (FIG. 10) [2] | ED50 (Sprague-Dawley rats [3]) [mg/kg] | dose producing loss of righting reflexes in all rats (Sprague-Dawley rats [3]) [mg/kg] | IC50 (11β-hydroxylase [4]) [nM] | maximum peak current at high drug concentrations, % of that produced by 1 mM GABA (α1β3γ2L GABAA receptor) [%] | occurrence of myoclonus and LoRR (Sprague-Dawley rats [5]) | effect on ACTH-stimulated plasma 11-deoxycorticosterone concentration ([2]; 0.3 mg/kg IV) | effect on ACTH-stimulated plasma pregnenolone concentration ([2]; 0.3 mg/kg IV) | effect on ACTH-stimulated plasma progesterone concentration ([2]; 0.3 mg/kg IV) | reduction of ACTH-stimulated plasma corticosterone concentration [2, 7] | effect on ACTH-stimulated plasma 11-deoxycorticosterone concentration ([2]; 3 mg/kg IV) | effect on ACTH-stimulated plasma pregnenolone concentration ([2]; 3 mg/kg IV) | effect on ACTH-stimulated plasma progesterone concentration ([2]; 3 mg/kg IV) | ACTH-stimulated plasma corticosterone concentration ([2]; 3 mg/kg IV, 15 min) [ng/m] | reduction of ACTH-stimulated plasma corticosterone concentration [2, 8] [%] | further results |
| --- | --- | --- | --- | --- | --- | --- | --- | --- | --- | --- | --- | --- | --- | --- | --- | --- |
| CCOC(=O)c1cccn1[C@H](C)c1ccccc1 [carboetomidate, ethyl (R)-1-(1-phenylethyl)-1H-pyrrole-2-carboxylate] | – | – | – | – | – | – | – | – | – | – | – | – | – | – | – | binding affinity to 11β-hydroxylase and adrenocortical inhibitory potency relative to etomidate (11β-hydroxylase [1]): reduced by three-orders of magnitude |
| CCOC(=O)c1cncn1[C@H](C)c1cccc2ccccc12 [Example 4, ethyl (R)-1-(1-(naphthalen-1-yl)ethyl)-1H-imidazole-5-carboxylate] | similarly inhibited adrenocortical steroid synthesis | – | – | – | – | – | – | – | – | – | – | – | – | – | – | – |
| CCOC(=O)c1cncn1[C@H](C)c1ccc2ccccc2c1 [Example 5, ethyl (R)-1-(1-(naphthalen-2-yl)ethyl)-1H-imidazole-5-carboxylate] | similarly inhibited adrenocortical steroid synthesis | – | – | – | – | – | – | – | – | – | – | – | – | – | – | – |
| CCOC(=O)c1cncn1[C@H](C)c1cc(OC)cc(OC)c1 [dimethoxy-etomidate, Ethyl (R)-1-(1-(3,5-dimethoxyphenyl)ethyl)-1H-imidazole-5-carboxylate] | – | 72 ± 13 | 100 | 7.9 | 11 | produced no myoclonic events or LoRR in any rat | neither etomidate nor dimethoxy-etomidate altered | neither etomidate nor dimethoxy-etomidate altered | neither etomidate nor dimethoxy-etomidate altered | 63% | without significantly affecting | without significantly affecting | without significantly affecting | 19±10 | 87 | time required for righting reflexes to return (LoRR duration) (Sprague-Dawley rats [3]; 100 mg/kg IV): 2.2 ± 0.7 min; sedative-hypnotic potency compared to etomidate (Sprague-Dawley rats [3]; from LoRR ED50s): two order of magnitude reduction; IC50 (11β-hydroxylase [4]; read-out: IC50 for displacement of [3H]-etomidate, low affinity site, 2 nM [3H]-etomidate, two site fit): 4270 nM; high affinity site share of all sites (11β-hydroxylase [4]; two site fit): 55%; EC50 (α1β3γ2L GABAA receptor): 210000 nM; magnitude of peak current enhancement relative to that produced by the same concentration of etomidate (α1β3γ2L GABAA receptor; EC5 GABA evoked currents): ≤ ⅛; ACTH-stimulated plasma corticosterone concentration ([2]; 0.3 mg/kg IV, 15 min): 56 ± 13 ng/mL; ACTH-stimulated plasma 11-deoxycorticosterone concentration ([2]; 50 mg/kg IV): 24 ± 12 ng/mL; ACTH-stimulated plasma corticosterone concentration ([2]; 50 mg/kg IV): 12 ± 1 ng/mL; effect on ACTH-stimulated plasma pregnenolone concentration ([2]; 50 mg/kg IV): unaffected; effect on ACTH-stimulated plasma progesterone concentration ([2]; 50 mg/kg IV): unaffected; reduction of ACTH-stimulated plasma 11-deoxycorticosterone concentration [2, 9]: 69%; reduction of ACTH-stimulated plasma corticosterone concentration [2, 9]: 95% |
| CCOC(=O)c1cncn1[C@H](C)c1ccccc1 [etomidate, ethyl (R)-1-(1-phenylethyl)-1H-imidazole-5-carboxylate, reference compound] | – | 0.77 ± 0.17 | ≥ 1 | 21 | 103 | produced myoclonus and LORR in all rats | neither etomidate nor dimethoxy-etomidate altered | neither etomidate nor dimethoxy-etomidate altered | neither etomidate nor dimethoxy-etomidate altered | no significant effect | without significantly affecting | without significantly affecting | without significantly affecting | 19±11 | 87 | lethality [6]: lethal; time required for righting reflexes to return (LoRR duration) (Sprague-Dawley rats [3]; 3 mg/kg IV, highest etomidate dose studied): 16.3 ± 0.5 min; maximum mean (±SEM) number of myoclonic events per rat (Sprague-Dawley rats [5]; 5-10-minute epoch): 13.8±2.2; mean (±SEM) total number of myoclonic events in each rat (Sprague-Dawley rats [5]; 30-minute observation period): 34±2.4 |

— patent publication US11098017B2, “Compounds for treating disorders associated with abnormal steroidogenesis” (The General Hospital Corporation, priority 2017, dated 2021)
